Data on 14 molecules can be found in PubChem BioAssay (NCI).

Among the test systems are ACHN renal; EKVX NSCLC; IGROV1 ovarian; MALME-3M melanoma; NCI-H460 lung; SF-268 CNS; SF-539 CNS; SK-MEL-28 melanoma; SNB-19 CNS; SNB-75 CNS.
Assay in all cases: inhibition of tumour cell growth, NCI panel, 48 h

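1) Cells in 96-well plates. 2) Compound, 48 h, 5 concentrations. 3) Linear interpolation between surrounding doses. 4) Unreached endpoint = highest concentration. At the GI50, growth is halved. TGI: total growth inhibition.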 Where only a bound is given, the exact number is not on record here.

For `C=C(C)[C@@H]1CC[C@]2(C)CC[C@]3(C)[C@H](CC[C@@H]4[C@@]5(C)CC[C@H](OC(=O)c6ccccc6)C(C)(C)[C@@H]5CC[C@]43C)[C@@H]12`, the TGI with ACHN renal, with EKVX NSCLC, in the assay on IGROV1 ovarian, with MALME-3M melanoma, with NCI-H460 lung and in the assay on SF-268 CNS was greater than 100 µM each time. Besides, the TGI in the assay with SF-539 CNS, in the assay with SK-MEL-28 melanoma, in the assay with SNB-19 CNS and with SNB-75 CNS was greater than 100 µM in each case.
As for `O=C(N/C(=C\c1ccccc1[N+](=O)[O-])c1nc2ccccc2[nH]1)c1ccccc1`, the TGI with IGROV1 ovarian, with MALME-3M melanoma, with SK-MEL-28 melanoma and with SNB-19 CNS was greater than 100 µM in each case.
`CN(C)CCNc1ccc2ncnc3c2c1C(=O)c1ccccc1-3`: the TGI in the assay with ACHN renal is 8.77 µM; with EKVX NSCLC, 5.67 µM; in the assay with IGROV1 ovarian, 0.574 µM; in the assay with MALME-3M melanoma, 2.38 µM; in the assay on NCI-H460 lung it was 5.01 µM; in the assay on SF-268 CNS, 4.48 µM. Also, the TGI came out at 17 µM in the assay with SF-539 CNS, 10.9 µM in the assay with SK-MEL-28 melanoma, 29.8 µM with SNB-19 CNS and 6.96 µM in the assay with SNB-75 CNS.
Take `COc1ccc(-c2cc(-c3ccccc3)n(C3OCC(OC(C)=O)C(OC(C)=O)C3OC(C)=O)c(=S)c2C#N)cc1` (stereo unspecified): the TGI with ACHN renal, in the assay with EKVX NSCLC, in the assay on IGROV1 ovarian, in the assay on MALME-3M melanoma, with NCI-H460 lung and in the assay on SF-268 CNS was greater than 100 µM throughout. Also, the TGI in the assay with SF-539 CNS, in the assay on SK-MEL-28 melanoma, in the assay on SNB-19 CNS and with SNB-75 CNS was greater than 100 µM each time.
As to `CC(C)(N)CO[C@H]1C[C@H]2CC[C@@]1(C)C2(C)C`, the TGI was 95 µM in the assay on ACHN renal; greater than 100 µM in the assay with EKVX NSCLC; greater than 100 µM in the assay with IGROV1 ovarian; 33.6 µM in the assay on MALME-3M melanoma; 36.3 µM in the assay with NCI-H460 lung; greater than 100 µM with SF-268 CNS. Besides, the TGI was determined as 41 µM in the assay on SF-539 CNS, 27.4 µM in the assay on SK-MEL-28 melanoma, 68.5 µM with SNB-19 CNS and 39.3 µM in the assay with SNB-75 CNS.
With `O=C(CCCn1c(=O)c2sc3ccccc3c2n2nnc(-c3ccccc3)c12)NCCc1cnc[nH]1`, the GI50 with ACHN renal is 1660 nM; in the assay with EKVX NSCLC, 2700 nM; in the assay with MALME-3M melanoma it was 2490 nM; with NCI-H460 lung, 1870 nM; with SF-268 CNS it was 1770 nM; in the assay with SF-539 CNS, 664 nM. For the same molecule, the GI50 in the assay with SK-MEL-28 melanoma is 1750 nM; in the assay with SNB-19 CNS it was 1710 nM; with SNB-75 CNS, 1860 nM. The TGI in the assay on ACHN renal was 3.02 µM; in the assay with EKVX NSCLC, 8.77 µM; in the assay with MALME-3M melanoma it was 5.49 µM; in the assay with NCI-H460 lung, 3.8 µM; with SF-268 CNS, 3.72 µM; with SF-539 CNS, 2.19 µM. In addition, the TGI worked out at 3.2 µM in the assay with SK-MEL-28 melanoma, 5.04 µM in the assay with SNB-19 CNS and 4.03 µM in the assay with SNB-75 CNS.
`Cc1nc2ccccc2c(=O)n1-c1n[nH]c2ccccc12`: the TGI in the assay on ACHN renal, with EKVX NSCLC, in the assay on IGROV1 ovarian, in the assay on MALME-3M melanoma, in the assay with NCI-H460 lung and in the assay with SF-268 CNS was greater than 100 µM each time. Also, the TGI in the assay with SF-539 CNS, in the assay on SK-MEL-28 melanoma, with SNB-19 CNS and with SNB-75 CNS was greater than 100 µM throughout.
As to `Cc1nc(Cl)c(Cl)c(Cl)n1`, the TGI with ACHN renal is 1.1 µM; with EKVX NSCLC it was 1.17 µM; with IGROV1 ovarian, 0.344 µM; in the assay with MALME-3M melanoma, 0.573 µM; in the assay with NCI-H460 lung it was 6.33 µM; in the assay on SF-268 CNS, 4.27 µM. Further, the TGI in the assay with SF-539 CNS came to 2.82 µM; with SK-MEL-28 melanoma, 1.2 µM; in the assay with SNB-19 CNS, 2.74 µM; in the assay with SNB-75 CNS, 2.7 µM.
In the case of `CN1CCN(c2ccc(-c3ccc4ncc(C#N)c(Nc5ccc(F)c(Cl)c5)c4c3)cc2)CC1`, the GI50 in the assay on ACHN renal is 491 nM; with EKVX NSCLC, 838 nM; in the assay with IGROV1 ovarian, 321 nM; in the assay on MALME-3M melanoma, 1740 nM; in the assay with NCI-H460 lung it was 2050 nM; in the assay on SF-268 CNS it was 2870 nM. The GI50 is 1860 nM in the assay with SF-539 CNS, 1790 nM with SK-MEL-28 melanoma, 3360 nM in the assay on SNB-19 CNS and 2330 nM in the assay with SNB-75 CNS. The TGI in the assay with ACHN renal is 2.72 µM; in the assay with EKVX NSCLC it was 41.2 µM; with IGROV1 ovarian, 10.5 µM; in the assay with MALME-3M melanoma, 4.04 µM; in the assay with NCI-H460 lung, 6.67 µM; in the assay with SF-268 CNS it was 15.9 µM. The TGI with SF-539 CNS is 4.07 µM; with SK-MEL-28 melanoma, 3.66 µM; in the assay with SNB-19 CNS, 19.2 µM; in the assay with SNB-75 CNS it was 15.9 µM.
In the case of `CCn1nc(C)c2c1C(=O)NC(C)C(=O)N2` (stereo unspecified), the TGI in the assay with ACHN renal, in the assay with EKVX NSCLC, with IGROV1 ovarian, in the assay on NCI-H460 lung, in the assay on SF-268 CNS and with SF-539 CNS was greater than 100 µM throughout. For the same molecule, the TGI in the assay with SK-MEL-28 melanoma, with SNB-19 CNS and in the assay with SNB-75 CNS was greater than 100 µM in each case.
Turning to `COc1cc(-c2n/c(=C\c3c(O)[nH]c4ccc(Cl)cc34)cc3c2=Nc2ccccc2-3)cc(OC)c1OC`, the GI50 was 449 nM with ACHN renal; 3590 nM with EKVX NSCLC; 685 nM in the assay on IGROV1 ovarian; 1600 nM with SF-268 CNS; 2320 nM in the assay on SF-539 CNS; 2040 nM in the assay on SK-MEL-28 melanoma. Besides, the GI50 in the assay with SNB-19 CNS is 1180 nM; in the assay on SNB-75 CNS, 1720 nM. Besides, the TGI stood at 1.65 µM with ACHN renal; 18.7 µM in the assay with EKVX NSCLC; 4.09 µM in the assay with IGROV1 ovarian; 3.95 µM with SF-268 CNS; 4.91 µM in the assay with SF-539 CNS; 4.41 µM with SK-MEL-28 melanoma. The TGI in the assay on SNB-19 CNS worked out at 3.84 µM; with SNB-75 CNS, 4.84 µM.
For `Nc1ccc2c(c1)C1=NNC(=O)CC1C2` (stereo unspecified), the TGI with EKVX NSCLC, in the assay with IGROV1 ovarian, in the assay with MALME-3M melanoma, in the assay on NCI-H460 lung, with SF-268 CNS and with SF-539 CNS was greater than 100 µM throughout. Also, the TGI in the assay on SK-MEL-28 melanoma, in the assay with SNB-19 CNS and in the assay with SNB-75 CNS was greater than 100 µM in each case.
Take `CO[C@H]1[C@@H](O)[C@@H](C)O[C@@H](O[C@H]2CC[C@@]3(C)[C@H](CC[C@@H]4[C@@H]3CC[C@]3(C)[C@@H](C5=CC(=O)OC5)CC[C@]43O)C2)[C@@H]1O`: the TGI with ACHN renal stood at 0.0102 µM; with EKVX NSCLC, 0.0106 µM; with IGROV1 ovarian, 0.0848 µM; in the assay on MALME-3M melanoma it was 0.00902 µM; in the assay with NCI-H460 lung, 0.00625 µM; in the assay on SF-268 CNS, 0.0366 µM. In addition, the TGI with SF-539 CNS was determined as 0.0247 µM; in the assay with SK-MEL-28 melanoma, 1.01 µM; with SNB-19 CNS, 0.211 µM; with SNB-75 CNS, 0.0271 µM.
Turning to `CC1SC(c2ccccc2)N(Nc2c3ccccc3nc3ccccc23)C1=O` (stereo unspecified), the TGI in the assay on ACHN renal, in the assay with EKVX NSCLC, in the assay on IGROV1 ovarian, with MALME-3M melanoma, with NCI-H460 lung and in the assay with SF-268 CNS was greater than 100 µM throughout. For the same molecule, the TGI in the assay with SF-539 CNS, with SK-MEL-28 melanoma, in the assay with SNB-19 CNS and in the assay with SNB-75 CNS was greater than 100 µM in each case.
